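Protocol summary: plate cells (96-well), add compound at 5 concentrations, incubate 48 h, interpolate endpoints linearly. GI50 is the concentration that inhibits growth by half. TGI marks complete inhibition of growth.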
Tests used:
Test in all cases: NCI anticancer screen, dose series, 48 h
A498 renal = test system: A498 renal
HOP-92 NSCLC = test system: HOP-92 NSCLC
M14 melanoma = test system: M14 melanoma
MDA-MB-435 = test system: MDA-MB-435
NCI-H522 lung = test system: NCI-H522 lung
SF-295 CNS = test system: SF-295 CNS
SK-MEL-2 melanoma = test system: SK-MEL-2 melanoma
SK-MEL-28 melanoma = test system: SK-MEL-28 melanoma
SW-620 colon = test system: SW-620 colon
T-47D breast = test system: T-47D breast

CCC(C(=O)[C@@H](C)[C@@H](O)[C@H](C)[C@@H]1O[C@@H]([C@@H](CC)C(=O)ONC(=O)c2ccccc2)CC[C@@H]1C)[C@H]1O[C@]2(C=CC(=O)[C@]3(CC[C@@](C)([C@H]4CC[C@](O)(CC)[C@H](C)O4)O3)O2)[C@H](C)C[C@@H]1C (stereo not given in full)
GI50 (A498 renal): 0.0851 µM
TGI (A498 renal): 0.731 µM
GI50 (HOP-92 NSCLC): 0.141 µM
TGI (HOP-92 NSCLC): 1.87 µM
GI50 (M14 melanoma): 1.32 µM
TGI (M14 melanoma): 7.5 µM
GI50 (MDA-MB-435): 1.11 µM
TGI (MDA-MB-435): 2.88 µM
GI50 (NCI-H522 lung): 0.0547 µM
TGI (NCI-H522 lung): 1.4 µM
GI50 (SF-295 CNS): 0.384 µM
TGI (SF-295 CNS): 2.08 µM
GI50 (SK-MEL-2 melanoma): 1.07 µM
TGI (SK-MEL-2 melanoma): 2.91 µM
GI50 (SK-MEL-28 melanoma): 1.6 µM
TGI (SK-MEL-28 melanoma): 8.57 µM
GI50 (SW-620 colon): 0.582 µM
TGI (SW-620 colon): 2.71 µM
GI50 (T-47D breast): 0.0463 µM
TGI (T-47D breast): 2.98 µM

CC(=O)c1ccc(Oc2c3ccccc3nc3occc23)cc1
GI50 (A498 renal): 28.1 µM
TGI (A498 renal): 80.6 µM
GI50 (HOP-92 NSCLC): 31.6 µM
TGI (HOP-92 NSCLC): > 100 µM
GI50 (M14 melanoma): 6.81 µM
TGI (M14 melanoma): > 100 µM
GI50 (MDA-MB-435): 2.02 µM
TGI (MDA-MB-435): 5.41 µM
GI50 (NCI-H522 lung): 4.68 µM
TGI (NCI-H522 lung): > 100 µM
GI50 (SF-295 CNS): 2.02 µM
TGI (SF-295 CNS): 12.5 µM
GI50 (SK-MEL-2 melanoma): > 100 µM
TGI (SK-MEL-2 melanoma): > 100 µM
GI50 (SK-MEL-28 melanoma): 41.2 µM
TGI (SK-MEL-28 melanoma): > 100 µM
GI50 (SW-620 colon): 4.87 µM
TGI (SW-620 colon): > 100 µM
GI50 (T-47D breast): 8.21 µM
TGI (T-47D breast): > 100 µM

C=C1C(=O)O[C@H]2[C@H]1CC/C(COC(=O)/C=C\C(=O)NCc1ccc(Cn3c(=O)sn(-c4ccc(Cl)cc4)c3=O)cc1)=C\CC[C@@]1(C)O[C@@H]21
GI50 (A498 renal): 0.741 µM
TGI (A498 renal): 1.43 µM
GI50 (HOP-92 NSCLC): 0.569 µM
TGI (HOP-92 NSCLC): 1.35 µM
GI50 (M14 melanoma): 0.639 µM
TGI (M14 melanoma): 1.48 µM
GI50 (MDA-MB-435): 0.647 µM
TGI (MDA-MB-435): 1.33 µM
GI50 (NCI-H522 lung): 0.632 µM
TGI (NCI-H522 lung): 1.55 µM
GI50 (SF-295 CNS): 3.11 µM
TGI (SF-295 CNS): 8.8 µM
GI50 (SK-MEL-2 melanoma): 0.904 µM
TGI (SK-MEL-2 melanoma): 1.89 µM
GI50 (SK-MEL-28 melanoma): 0.816 µM
TGI (SK-MEL-28 melanoma): 1.55 µM
GI50 (SW-620 colon): 0.242 µM
TGI (SW-620 colon): 0.915 µM
GI50 (T-47D breast): 0.881 µM
TGI (T-47D breast): 2.15 µM

C=CCN1C(=O)[C@]2(SC1=S)[C@H](c1cccc(Cl)c1)CN(C)[C@]21C(=O)NC2C=CC(Cl)=C[C@H]21 (stereo not given in full)
GI50 (A498 renal): 2.7 µM
TGI (A498 renal): 7.48 µM
GI50 (HOP-92 NSCLC): 3.17 µM
TGI (HOP-92 NSCLC): 14.9 µM
GI50 (M14 melanoma): 2.35 µM
TGI (M14 melanoma): 11.9 µM
GI50 (MDA-MB-435): 5.9 µM
TGI (MDA-MB-435): 21.5 µM
GI50 (NCI-H522 lung): 5.79 µM
TGI (NCI-H522 lung): 20.6 µM
GI50 (SF-295 CNS): 7.29 µM
TGI (SF-295 CNS): 21.4 µM
GI50 (SK-MEL-2 melanoma): 8.13 µM
TGI (SK-MEL-2 melanoma): 24.2 µM
GI50 (SK-MEL-28 melanoma): 10.9 µM
TGI (SK-MEL-28 melanoma): 27.8 µM
GI50 (SW-620 colon): 2.89 µM
TGI (SW-620 colon): 11.6 µM
GI50 (T-47D breast): 2.84 µM
TGI (T-47D breast): 14.7 µM

C=C1C(O)C2CC(C)(C)C(=O)C2=C(CC(C)C)C12CC2 (stereo not given)
GI50 (A498 renal): > 100 µM
TGI (A498 renal): > 100 µM
GI50 (HOP-92 NSCLC): > 100 µM
TGI (HOP-92 NSCLC): > 100 µM
GI50 (M14 melanoma): > 100 µM
TGI (M14 melanoma): > 100 µM
GI50 (MDA-MB-435): > 100 µM
TGI (MDA-MB-435): > 100 µM
GI50 (NCI-H522 lung): 85 µM
TGI (NCI-H522 lung): > 100 µM
GI50 (SF-295 CNS): > 100 µM
TGI (SF-295 CNS): > 100 µM
GI50 (SK-MEL-2 melanoma): > 100 µM
TGI (SK-MEL-2 melanoma): > 100 µM
GI50 (SK-MEL-28 melanoma): > 100 µM
TGI (SK-MEL-28 melanoma): > 100 µM
GI50 (SW-620 colon): > 100 µM
TGI (SW-620 colon): > 100 µM
GI50 (T-47D breast): > 100 µM
TGI (T-47D breast): > 100 µM

CC(=O)/C=C/c1ccc(N(CCO)Cc2ccc(C(C)(C)C)cc2)cc1
GI50 (A498 renal): 113 µM
TGI (A498 renal): 236 µM
GI50 (HOP-92 NSCLC): 27.6 µM
TGI (HOP-92 NSCLC): 156 µM
GI50 (M14 melanoma): 48.9 µM
TGI (M14 melanoma): 200 µM
GI50 (MDA-MB-435): 64 µM
TGI (MDA-MB-435): 196 µM
GI50 (NCI-H522 lung): 84.8 µM
TGI (NCI-H522 lung): 237 µM
GI50 (SF-295 CNS): 40.3 µM
TGI (SF-295 CNS): 176 µM
GI50 (SK-MEL-2 melanoma): 96.7 µM
TGI (SK-MEL-2 melanoma): 233 µM
GI50 (SK-MEL-28 melanoma): 58.8 µM
TGI (SK-MEL-28 melanoma): 201 µM
GI50 (SW-620 colon): 119 µM
TGI (SW-620 colon): 259 µM
GI50 (T-47D breast): 31 µM
TGI (T-47D breast): 161 µM

Nc1nc(N)c(-c2ccc(Cl)c(Cl)c2)c(CP(Cl)(Cl)(Cl)Br)n1
GI50 (A498 renal): 22.9 µM
TGI (A498 renal): > 100 µM
GI50 (HOP-92 NSCLC): 12.6 µM
TGI (HOP-92 NSCLC): 54.3 µM
GI50 (M14 melanoma): 6.62 µM
TGI (M14 melanoma): > 100 µM
GI50 (MDA-MB-435): 4.4 µM
TGI (MDA-MB-435): 84.3 µM
GI50 (NCI-H522 lung): 21.2 µM
TGI (NCI-H522 lung): > 100 µM
GI50 (SF-295 CNS): 6.7 µM
TGI (SF-295 CNS): > 100 µM
GI50 (SK-MEL-2 melanoma): 17.9 µM
TGI (SK-MEL-2 melanoma): 48.7 µM
GI50 (SK-MEL-28 melanoma): 20.6 µM
TGI (SK-MEL-28 melanoma): > 100 µM
GI50 (SW-620 colon): 4.2 µM
TGI (SW-620 colon): > 100 µM
GI50 (T-47D breast): 34.1 µM
TGI (T-47D breast): > 100 µM

CCC(=C(c1ccc(OCCN2CCCC2)cc1)c1ccc(OCCN2CCCC2)cc1)c1ccc(Cl)cc1
GI50 (A498 renal): 1.28 µM
TGI (A498 renal): 2.82 µM
GI50 (HOP-92 NSCLC): 0.482 µM
TGI (HOP-92 NSCLC): 1.04 µM
GI50 (M14 melanoma): 0.629 µM
TGI (M14 melanoma): 1.18 µM
GI50 (MDA-MB-435): 0.552 µM
TGI (MDA-MB-435): 1.03 µM
GI50 (NCI-H522 lung): 0.577 µM
TGI (NCI-H522 lung): 1.24 µM
GI50 (SF-295 CNS): 0.637 µM
TGI (SF-295 CNS): 1.23 µM
GI50 (SK-MEL-2 melanoma): 0.688 µM
TGI (SK-MEL-2 melanoma): 1.35 µM
GI50 (SK-MEL-28 melanoma): 0.571 µM
TGI (SK-MEL-28 melanoma): 1.06 µM
GI50 (SW-620 colon): 0.554 µM
TGI (SW-620 colon): 1.09 µM
GI50 (T-47D breast): 0.498 µM
TGI (T-47D breast): 1.21 µM

O=C(O)c1cc(Cl)cc(Cc2cc(Cl)cc(C(=O)O)c2O)c1O
TGI (A498 renal): > 100 µM
TGI (HOP-92 NSCLC): > 100 µM
TGI (M14 melanoma): > 100 µM
TGI (MDA-MB-435): > 100 µM
TGI (NCI-H522 lung): > 100 µM
TGI (SF-295 CNS): > 100 µM
TGI (SK-MEL-2 melanoma): > 100 µM
TGI (SK-MEL-28 melanoma): > 100 µM
TGI (SW-620 colon): > 100 µM
TGI (T-47D breast): > 100 µM
